One may read the inhibition as the drop in the measured response relative to a control, in per cent.

17 molecules from patent US20020128232A1, “Heterocyclic angiogenesis inhibitors” (priority 2000, published 2002) can be followed below.

The assay concerns rat aorta ring. The assay is described as follows: Rat aorta assay for angiogenesis inhibition (rat aorta ring model, micro-vessel growth scored). The class given is cell-based. The note with it: for inhibition at 100 µg/mL / inhibition at 20 µg/mL / inhibition at 50 µg/mL / inhibition at 4 µg/mL / inhibition at 10 µg/mL: Rattus norvegicus. The source says:
The rat aorta ring model based on that described by Nicosia and Ottinetti (Nicosia, R. F. et al., Lab. Investigation 63: 115, 1990; Nicosia, R. F. et al., Cell. Dev. Bio. 26: 119-128, 1990), was used throughout the assay.
The agarose was made up as a 1.5% solution in distilled water and brought to the boil to form a clear solution which was poured into sterile 9 cm petri dishes, covered and allowed to cool and set.
Maintaining sterile conditions, agarose rings were obtained by punching two concentric circles, with sterile 10 and 17 mm hole punches, respectively, in the agarose gel. Using sterile forceps, the rings are removed and placed, three per well in each of the 6-well plates.
The MEM was prepared according to manufacturer's directions, but before filtering through a 0.22 μm filter, HEPES and L-glutamine were added to give 10 mM and 1 mM concentrations respectively with pH adjusted to 7.4. Eight hundred mL of this medium were filtered through a 0.2 μm filter along with the antibiotics (50 mg/L Gentamycin sulphate and 2.5 mg/L Amphotericin B) and 200 mL of FCS (to give 20%) to yield one liter of medium.
The aorta was removed from a 3-4 month male Copenhagen rat and transferred to a dissecting dish where it was cleaned and carefully stripped of the fibroadipose tissue surrounding it. Rings of 0.5 mm were cut, using a fresh scalpel blade, from the length of the aorta. These were kept under sterile conditions in a biohazard hood where they were washed 12 times with MEM.
Before transferring the aortic rings to the culture plate, the bottom of each agarose well was coated with 150 μL of clotting fibrinogen. Fibrinogen was made up as a […] solution in MEM, while Thrombin made up in distilled water to give a concentration of 50 U/mL. The fibrinogen (1 mL) and the thrombin (20 μL) reacted within 30 sec to form a solid gel.
The aortic rings were transferred to the 6-well plates, with one ring placed in the center of each agarose well. Fresh fibrinogen/thrombin was made up as before and 150 μL was used to seal in each aortic ring. The gels were rested for approximately 2 hours before the medium was added.
[…] The compounds were made up as 6 mg/mL solution in water or DMSO. The test solutions were added to each well with the medium.
Six mL of MEM were carefully added to each of three wells to become the controls. MEM, along with the test compounds were added to the remaining wells and all were covered and transferred to the CO2 Incubator at 37° C., where they were kept for the next 14 days.
However, by the fifth day, there were noticeable changes in the tissue. Micro-vessels were seen and scored. We have based the scoring method on that used by Liekens et al., (Liekins, S. et al., Oncol. Res. 9: 173-181, 1997) in which 0 meant no vessels and 10 meant maximum vessels; the score is then converted into a percentage inhibition of vessel growth.

Setting [1] is: 120 h, 100 μg/ml, day 5, read-out: Growth Inhibition Day 5 (%).
[2] abbreviates: 264 h, 100 μg/ml, day 11, read-out: Growth Inhibition Day 11 (%).
[3] abbreviates: 100 μg/ml, test slow to establish, read after 15 days (footnote *), read-out: Growth inhibition after 15 days.
The mark [4] stands for this setting: 120 h, 20 μg/ml, day 5, read-out: Growth Inhibition Day 5 (%).
[5] abbreviates: 120 h, 50 μg/ml, day 5, read-out: Growth Inhibition Day 5 (%).
[6] abbreviates: 264 h, 20 μg/ml, day 11, read-out: Growth Inhibition Day 11 (%).
Where [7] appears, read: 264 h, 50 μg/ml, day 11, read-out: Growth Inhibition Day 11 (%).
The mark [8] stands for this setting: 120 h, 10 μg/ml, day 5, read-out: Growth Inhibition Day 5 (%).

Molecules are shown by their SMILES. Where a name gives a salt, the structure may show the parent alone. Read-outs that look alike come from different tables or passages of the source. Marks after values point to notes of the source that are not given here.

`O=C(Nc1cccc(B(O)O)c1)n1c(=O)[nH]c2ccccc21` [Example 2, N-(Phenyl-3-boronic acid)-2,3-dihydro-2-oxo-1H-benzimidazole-1-carboxamide]: the “Growth Inhibition Day 5 (%)” value turned out to be 50% (4 μg/ml, day 5); 100% (20 μg/ml, day 5); 100% (50 μg/ml, day 5). For the same molecule, the “Growth Inhibition Day 11 (%)” value reads like this: (4 μg/ml, day 11) 0%; (20 μg/ml, day 11) 100%; (50 μg/ml, day 11) 100%. For the same molecule, the “Growth inhibition after 15 days” value (100 μg/ml, test slow to establish, read after 15 days (footnote *)) is 100* %.
For the molecule `O=C(O)c1cccc(NC(=O)n2c(=O)[nH]c3ccccc32)c1` [Example 3, N-(3-Carboxyphenyl)-2,3-dihydro-2-oxo-1H-benzimidazole-1-carboxamide], the inhibition at 100 µg/mL was 60% under setting [1] and 60% under setting [2].
Take `O=C(O)c1ccc(NC(=O)n2c(=O)[nH]c3ccccc32)cc1` [Example 4, N-(4-Carboxyphenyl)-2,3-dihydro-2-oxo-1H-benzimidazole-1-carboxamide]: the inhibition at 100 µg/mL under setting [3] came out at 100%. Further, the inhibition at 20 µg/mL by setting is: under setting [4], 100%; under setting [6], 70%. Further, the inhibition at 50 µg/mL by setting is: under setting [5], 90%; under setting [7], 95%.
`O=C(O)c1ccccc1NC(=O)n1c(=O)[nH]c2ccccc21` [Example 5, N-(2-Carboxyphenyl)-2,3-dihydro-2-oxo-1H-benzimidazole-1-carboxamide]: the inhibition at 100 µg/mL under setting [3] worked out at 90%. In addition, the inhibition at 20 µg/mL was 0% under setting [4] and 0% under setting [6]. The inhibition at 50 µg/mL was 10% under setting [5] and 0% under setting [7].
As for `O=C(O)Cc1ccc(NC(=O)n2c(=O)[nH]c3ccccc32)cc1` [Example 7, N-(4-Carboxymethylphenyl)-2,3-dihydro-2-oxo-1H-benzimidazole-1-carboxamide], the inhibition at 100 µg/mL under setting [3] was found to be 100%. The inhibition at 20 µg/mL turned out to be 80% under setting [4] and 0% under setting [6]. The inhibition at 50 µg/mL runs as follows: under setting [5], 80%; under setting [7], 100%.
Take `CCOC(=O)c1cccc(NC(=O)n2c(=O)[nH]c3ccccc32)c1` [Example 9, N-(3-Ethoxycarbonylphenyl)-2,3-dihydro-2-oxo-1H-benzimidazole-1-carboxamide]: the inhibition at 100 µg/mL reads like this: under setting [1], 70%; under setting [2], 10%.
For the molecule `O=C(Nc1ccccc1)n1c(=S)[nH]c2ccccc21` [Example 11, 2-Thioxo-2,3-dihydrobenzoimidazole-1-carboxylic acid phenylamide], at 4 µg/mL the inhibition (120 h, 4 μg/ml, day 5) was 0%. Further, the inhibition at 50 µg/mL under setting [5] was found to be 100%.
Take `O=C(C1CCCN1)n1c(=O)[nH]c2ccccc21` (stereo not drawn) [Example 12, 1-(Pyrrolidine-2-carbonyl)-1,3-dihydrobenzoimidazol-2-one trifluoroacetic acid salt]: 4 µg/mL produced 50% inhibition (120 h, 4 μg/ml, day 5). The inhibition at 20 µg/mL under setting [4] is 70%.
`C=CCNC(=O)n1c(=O)[nH]c2ccccc21` [Example 13, 2-Oxo-2,3-dihydrobenzoimidazole-1-carboxylic acid allylamide] had an inhibition at 4 µg/mL (120 h, 4 μg/ml, day 5) of 0%. The inhibition at 20 µg/mL under setting [4] was determined as 20%.
For `O=C(Nc1ccccc1)n1c(=O)[nH]c2cncnc21` [Example 14, 8-Oxo-7,8-dihydropurine-9-carboxylic acid phenylamide], for the setting “120 h, 4 μg/ml, day 5”, testing at 4 µg/mL gave an inhibition of 20%. In addition, the inhibition at 20 µg/mL under setting [4] is 40%. Besides, under setting [5], the inhibition at 50 µg/mL stood at 20%.
For `CC(C)(C)c1ccc(NC(=O)n2c(=O)[nH]c3ccccc32)cc1` [Example 16, 2-Oxo-2,3-dihydrobenzoimidazole-1-carboxylic acid (4-t-butylphenyl)amide], under setting [8], the inhibition at 10 µg/mL was found to be 10%.
For `O=C(Nc1ccccc1)n1c(=O)[nH]c2ccccc21` [Example 17, 2-Oxo-2,3-dihydrobenzimidazole-1-carboxylic acid phenylamide], at 4 µg/mL the inhibition (120 h, 4 μg/ml, day 5) was 50%. Besides, the inhibition at 20 µg/mL under setting [4] worked out at 30%. Moreover, under setting [5], the inhibition at 50 µg/mL amounted to 95%.
As for `O=C1NS(=O)(=O)c2ccc(NC(=O)n3c(=O)[nH]c4ccccc43)cc21` [Example 20, 2-oxo-2,3-dihydrobenzimidazole-1-carboxylic acid (1,1,3-trioxo-2,3-dihydro-1H-1λ^6-benzo[d]isothiazol-5-yl)amide], the inhibition at 10 µg/mL was 100% under setting [8] and 70% (264 h, 10 μg/ml, day 11, read-out: Growth Inhibition Day 11 (%)).
Consider `O=C(O)c1cc(NC(=O)n2c(=O)[nH]c3ccccc32)cc(C(=O)O)c1` [Example 23, 5-[(2-oxo-2,3-dihydrobenzimidazole-1-carbonyl)-amino]isophthalic acid], for which the inhibition at 10 µg/mL under setting [8] amounted to 10%.
`O=C(Nc1ccc(OP(=O)(O)O)cc1)n1c(=O)[nH]c2ccccc21` [Example 26, Phosphoric acid mono-{4[(2-oxo-2,3-dihydrobenzimidazole-1-carbonyl)-amino]-phenyl} ester]: the inhibition at 10 µg/mL is 90% (120 h, read-out: Growth Inhibition Day 5 (%)) and 40% (264 h, read-out: Growth Inhibition Day 11 (%)).
Regarding `O=C(Nc1ccc(B(O)O)cc1)n1c(=O)[nH]c2ccccc21` [Example 28, N-(phenyl-4-boronic acid)-2,3-dihydro-2-oxo-1H-benzimidazole-1-carboxamide], the “Growth Inhibition Day 11 (%)” value is 20% (4 μg/ml, day 11) and 20% (10 μg/ml, day 11).
As for `O=C([O-])c1cccc(NC(=O)n2c(=O)[nH]c3ccccc32)c1.[Na+]` [Sodium salt of 3, N-(3-Carboxyphenyl)-2,3-dihydro-2-oxo-1H-benzimidazole-1-carboxamide Sodium Salt], the “Growth Inhibition Day 5 (%)” value (100 μg/ml, day 5) was determined as 70%. Besides, the “Growth Inhibition Day 11 (%)” value (100 μg/ml, day 11) was found to be 80%.
